Here are results for twelve compounds from patent US7893055B2, “HIV integrase inhibitors” (priority 2006, dated 2011).

The target in this assay is T1, HIV-integrase (Human immunodeficiency virus type 1 group M subtype B, UniProt P12497).
T1 construct: Recombinant integrase (0.26 ng) was incubated with the beads
Kind of assay: HIV-Integrase Inhibition Activity (SPA strand transfer assay). Format: biochemical. The following applies: recombinant integrase, SPA beads, P33 labeled target DNA; read-out: Activity (IC50 class, HIV-integrase inhibition). The protocol:
HIV-Integrase InhibitionActivity. To evaluate in-vitro activity against HIV-integrase, 5 pmole of biotin labeled substrate DNA was bound to 100 μg of Streptavidin coated PVT SPA beads (Amersham Pharmacia Biotech). Recombinant integrase (0.26 ng) was incubated with the beads for 90 min at 37° C. Unbound enzyme was removed by washing the complex followed by addition of inhibitors and 0.1 fmol of P33 labeled target DNA. The reaction was stopped by adding EDTA to a final concentration of 10 mM. Samples were counted in TopCountNXT (Packard) and the CPM was used as a measure of integration. The reaction condition was as described in A. Engelman and R. Craigie, J. Virol. 69, 5908-5911 (1995). The sequences of substrate and target DNA were described in Nucleic Acid Research 22, 1121-1122 (1994). Activity equal to A refers to a compound having IC50=0.002 to 0.10 μM while B and C denote compounds having IC50=0.1 to 1.0 μM and IC50≧1.0 μM respectively.

Regarding “2-Thiopheneacetic acid, 5- [[[(4,6,7,9-tetrahydro-3-hydroxy- 9,9-dimethyl-4-oxopyrimido[2,1- c][1,4]oxazin-2- yl)carbonyl]amino]methy]- [Example 55]”, the IC50 was in the range of 100 to 1000 nM. Consider `CC1(C)OCCn2c1nc(C(=O)NCc1cc3ccccc3s1)c(O)c2=O` [Example 1, Pyrimido[2,1-c][1,4]oxazine-2-carboxamide, N-(benzo[b]thien-2-ylmethyl)-4,6,7,9-tetrahydro-3-hydroxy-9,9-dimethyl-4-oxo-], for which the IC50 was 2 to 100 nM.

Regarding `Cc1cc(CNC(=O)c2nc3n(c(=O)c2O)CCOC3(C)C)nn1C` [Example 2, Pyrimido[2,1-c][1,4]oxazine-2-carboxamide, N-[(1,5-dimethyl-1H-pyrazol-3-yl)methyl]-4,6,7,9-tetrahydro-3-hydroxy-9,9-dimethyl-4-oxo-], the IC50 was in the range of 100 to 1000 nM. The result for `CC1(C)OCCn2c1nc(C(=O)NCc1csc(-c3ccccc3)n1)c(O)c2=O` [Example 3, Pyrimido[2,1-c][1,4]oxazine-2-carboxamide, 4,6,7,9-tetrahydro-3-hydroxy-9,9-dimethyl-4-oxo-N-[(2-phenyl-4-thiazolyl)methyl]-] reads 100 to 1000 nM; that for `CC1(C)OCCn2c1nc(C(=O)NCc1csc(-c3ccc(Cl)cc3)n1)c(O)c2=O` [Example 4, Pyrimido[2,1-c][1,4]oxazine-2-carboxamide, N-[[2-(4-chlorophenyl)-4-thiazolyl]methyl]-4,6,7,9-tetrahydro-3-hydroxy-9,9-dimethyl-4-oxo-], 100 to 1000 nM.

In the case of `CC1(C)OCCn2c1nc(C(=O)NCc1nccs1)c(O)c2=O` [Example 5, Pyrimido[2,1-c][1,4]oxazine-2-carboxamide, 4,6,7,9-tetrahydro-3-hydroxy-9,9-dimethyl-4-oxo-N-(2-thiazolylmethyl)-], the half-maximal inhibitory concentration (IC50) was not below 1000 nM. For `CC1(C)OCCn2c1nc(C(=O)NCc1cnn(-c3ccccc3)c1)c(O)c2=O` [Example 6, Pyrimido[2,1-c][1,4]oxazine-2-carboxamide, 4,6,7,9-tetrahydro-3-hydroxy-9,9-dimethyl-4-oxo-N-[(1-phenyl-1H-pyrazol-4-yl)methyl]-] the value was not below 1000 nM. For `Cc1nc(CNC(=O)c2nc3n(c(=O)c2O)CCOC3(C)C)cs1` [Example 7, Pyrimido[2,1-c][1,4]oxazine-2-carboxamide, 4,6,7,9-tetrahydro-3-hydroxy-9,9-dimethyl-N-[(2-methyl-4-thiazolyl)methyl]-4-oxo-] the value was 100 to 1000 nM; for `Cc1cc(CNC(=O)c2nc3n(c(=O)c2O)CCOC3(C)C)n(C)n1` [Example 8, Pyrimido[2,1-c][1,4]oxazine-2-carboxamide, N-[(1,3-dimethyl-1H-pyrazol-5-yl)methyl]-4,6,7,9-tetrahydro-3-hydroxy-9,9-dimethyl-4-oxo-], 100 to 1000 nM; for `Cc1ccc(CNC(=O)c2nc3n(c(=O)c2O)CCOC3(C)C)n1C` [Example 9, Pyrimido[2,1-c][1,4]oxazine-2-carboxamide, N-[(1,5-dimethyl-1H-pyrrol-2-yl)methyl]-4,6,7,9-tetrahydro-3-hydroxy-9,9-dimethyl-4-oxo-], 2 to 100 nM. Consider `Cc1cc(CNC(=O)c2nc3n(c(=O)c2O)CCOC3(C)C)nn1C(C)(C)C` [Example 10, Pyrimido[2,1-c][1,4]oxazine-2-carboxamide, N-[[1-(1,1-dimethylethyl)-5-methyl-1H-pyrazol-3-yl]methyl]-4,6,7,9-tetrahydro-3-hydroxy-9,9-dimethyl-4-oxo-], for which the IC50 was in the range of 2 to 100 nM. The result for `Cn1c(CNC(=O)c2nc3n(c(=O)c2O)CCOC3(C)C)cc2ccccc21` [Example 11, Pyrimido[2,1-c][1,4]oxazine-2-carboxamide, 4,6,7,9-tetrahydro-3-hydroxy-9,9-dimethyl-N-[(1-methyl-1H-indol-2-yl)methyl]-4-oxo-] reads 2 to 100 nM.
